Legend:
Assay in all cases: relative viability (nuclei count vs DMSO), 5 days (fraction); higher = more cells survive
FH535 + Bortezomib = compound: CC1=C(C=CC(=C1)[N+](=O)[O-])NS(=O)(=O)C2=C(C=CC(=C2)Cl)Cl [FH535] + CC(C)C[C@H](NC(=O)[C@H](Cc1ccccc1)NC(=O)c1cnccn1)B(O)O [Bortezomib] (partner 0.002 µM)
Procedure, shortened: (§1)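 Medians of duplicate plates are given as relative viability. That measure is the nuclei count in treated wells divided by the count in vehicle wells. Counts were taken on 4× images of lung cancer cell lines in 1536-well plates, 5 days after pin-tool dosing the day after seeding with one drug alone or a fixed anchor-drug dose plus five library-drug doses (not always all listed) in √10 steps.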

FH535 + Navitoclax = compound: CC1=C(C=CC(=C1)[N+](=O)[O-])NS(=O)(=O)C2=C(C=CC(=C2)Cl)Cl [FH535] + CC1(C)CCC(c2ccc(Cl)cc2)=C(CN2CCN(c3ccc(C(=O)NS(=O)(=O)c4ccc(N[C@H](CCN5CCOCC5)CSc5ccccc5)c(S(=O)(=O)C(F)(F)F)c4)cc3)CC2)C1 [Navitoclax] (partner 0.5 µM)
Procedure, shortened: as §1

FH535 + OSI-027 = compound: CC1=C(C=CC(=C1)[N+](=O)[O-])NS(=O)(=O)C2=C(C=CC(=C2)Cl)Cl [FH535] + COc1cccc2cc(-c3nc([C@H]4CC[C@H](C(=O)O)CC4)n4ncnc(N)c34)[nH]c12 [OSI-027] (partner 0.5 µM)
Procedure, shortened: as §1

FH535 + Lapatinib = compound: CC1=C(C=CC(=C1)[N+](=O)[O-])NS(=O)(=O)C2=C(C=CC(=C2)Cl)Cl [FH535] + CS(=O)(=O)CCNCc1ccc(-c2ccc3ncnc(Nc4ccc(OCc5cccc(F)c5)c(Cl)c4)c3c2)o1 [Lapatinib] (partner 2 µM)
Procedure, shortened: as §1

FH535 + Pictilisib = compound: CC1=C(C=CC(=C1)[N+](=O)[O-])NS(=O)(=O)C2=C(C=CC(=C2)Cl)Cl [FH535] + CS(=O)(=O)N1CCN(Cc2cc3nc(-c4cccc5[nH]ncc45)nc(N4CCOCC4)c3s2)CC1 [Pictilisib] (partner 1 µM)
Procedure, shortened: as §1

Cell Line	relative viability (FH535 + Bortezomib; first compound 0.04 µM)	relative viability (FH535 + Bortezomib; first compound 0.1265 µM)	relative viability (FH535 + Bortezomib; first compound 0.4 µM)	relative viability (FH535 + Bortezomib; first compound 1.265 µM)	relative viability (FH535 + Navitoclax; first compound 0.04 µM)	relative viability (FH535 + Navitoclax; first compound 0.1265 µM)	relative viability (FH535 + Navitoclax; first compound 0.4 µM)	relative viability (FH535 + Navitoclax; first compound 1.265 µM)	relative viability (FH535 + OSI-027; first compound 0.04 µM)	relative viability (FH535 + OSI-027; first compound 0.1265 µM)	relative viability (FH535 + OSI-027; first compound 0.4 µM)	relative viability (FH535 + OSI-027; first compound 1.265 µM)	relative viability (FH535 + Lapatinib; first compound 0.04 µM)	relative viability (FH535 + Lapatinib; first compound 0.1265 µM)	relative viability (FH535 + Lapatinib; first compound 0.4 µM)	relative viability (FH535 + Lapatinib; first compound 1.265 µM)	relative viability (FH535 + Pictilisib; first compound 0.04 µM)	relative viability (FH535 + Pictilisib; first compound 0.1265 µM)	relative viability (FH535 + Pictilisib; first compound 0.4 µM)	relative viability (FH535 + Pictilisib; first compound 1.265 µM)
COR-L 105	0.804	0.822	0.653	0.675	0.725	0.864	0.702	0.637	0.691	0.701	0.613	0.608	0.274	0.345	0.372	0.398	0.27	0.385	0.384	0.394
NCI-H2228	0.933	0.81	0.839	0.829	0.826	1.1	0.841	0.728	0.487	0.71	0.658	0.522	0.574	1.15	1.2	0.927	0.327	0.416	0.369	0.305
PC-14	0.938	0.885	0.815	0.759	0.972	1.1	1.01	0.941	0.83	0.9	0.896	0.783	0.365	0.318	0.376	0.313	0.73	0.743	0.709	0.655
EMC-BAC-2	0.961	1.13	1.06	1.03	1.17	1.19	1.2	1.02	0.339	0.402	0.395	0.364	0.788	0.926	0.894	0.813	0.506	0.507	0.544	0.526
LU99A	0.726	1.01	1.05	0.948	0.716	0.667	0.844	0.844	0.241	0.304	0.284	0.279	0.739	1.05	0.969	0.866	0.291	0.324	0.335	0.295
RERF-LC-KJ	1.11	1.11	1.11	0.788	1.15	0.784	1.11	0.719	0.538	0.616	0.6	0.4	0.916	0.884	0.824	0.714	0.49	0.534	0.478	0.392
NCI-H647	0.964	0.584	0.818	0.95	1.06	1.2	1.1	0.919	0.486	0.809	0.673	0.543	0.971	1.08	0.914	0.864	0.435	0.458	0.434	0.362

Reference: the supplement of paper PMC10307832
